The assay deals with P388 leukemia ip, CD2F1 mice, survival T/C. As to the kind of experiment: NCI In Vivo Anticancer Drug Screen. Data for tumor model P388 Leukemia (intraperitoneal) in CD2F1 (CDF1) mice. Conditions: endpoint: median survival time, higher = longer survival. The procedure, abridged:
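Mice carrying the transplanted tumor received test compound or vehicle. Survival was recorded in each group, and the value is the treated-group measurement divided by that of the vehicle-treated control group.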

[1] abbreviates: dose: 50.0 mg/kg/injection, schedule: Q01DX009 (ip), vehicle: saline with Tween-80.
Setting [2] is: dose: 100.0 mg/kg/injection, schedule: Q01DX009 (ip), vehicle: saline with Tween-80.
Where [3] appears, read: dose: 200.0 mg/kg/injection, schedule: Q01DX009 (ip), vehicle: saline with Tween-80.
The mark [4] stands for this setting: dose: 60.0 mg/kg/injection, schedule: Q01DX005 (ip), vehicle: saline with Tween-80.
Setting [5] is: dose: 120.0 mg/kg/injection, schedule: Q01DX005 (ip), vehicle: saline with Tween-80.
The mark [6] stands for this setting: dose: 240.0 mg/kg/injection, schedule: Q01DX005 (ip), vehicle: saline with Tween-80.
The mark [7] stands for this setting: dose: 100.0 mg/kg/injection, schedule: Q01DX009 (ip), vehicle: saline.
Where [8] appears, read: dose: 200.0 mg/kg/injection, schedule: Q01DX009 (ip), vehicle: saline.

The text below walks through data of PubChem BioAssay AID330 (DTP/NCI, 2004).

Values joined by “and” are separate entries in the source; they are usually repeats but may differ in a detail not shown here. Equal entries are not always repeated. Toxic doses and inconclusive results are not listed. Peptide text beside a SMILES is read from it. * marks the point of attachment. Boc = CC(C)(C)OC(=O)*; NHNH2 = NN*

On to `CC(C)CNC(=O)OCc1c(COC(=O)NCC(C)C)c(-c2ccc(Cl)c(Cl)c2)n2c1CCC2`, for which the T/C reads like this: (dose: 6.25 mg/kg/injection, schedule: Q01DX009 (ip), vehicle: distilled water + Tween-80) 111 % of control and 116 % of control; (dose: 25.0 mg/kg/injection, schedule: Q01DX009 (ip), vehicle: distilled water + Tween-80) 158 % of control and 171 % of control; (dose: 50.0 mg/kg/injection, schedule: Q01DX009 (ip), vehicle: distilled water + Tween-80) 182 % of control and 198 % of control; (dose: 100.0 mg/kg/injection, schedule: Q01DX009 (ip), vehicle: distilled water + Tween-80) 180 % of control; (dose: 200.0 mg/kg/injection, schedule: Q01DX009 (ip), vehicle: distilled water + Tween-80) 100 % of control and 92 % of control.
Consider `CCC12C[N+]3([O-])CCc4c([nH]c5ccccc45)C(C(=O)OC)(c4cc5c(cc4OC)N(C)C4C(O)(C(=O)OC)C(OC(C)=O)C6(CC)C=CCN7CCC54C76)CC(C3)C1O2` (centres undefined), for which the T/C is, setting by setting: (dose: 2.0 mg/kg/injection, schedule: Q01DX001 (ip), vehicle: water) 102 % of control; (dose: 8.0 mg/kg/injection, schedule: Q01DX001 (ip), vehicle: distilled water + Tween-80) 161 % of control; (dose: 8.0 mg/kg/injection, schedule: Q01DX001 (ip), vehicle: water) 122 % of control; (dose: 16.0 mg/kg/injection, schedule: Q01DX001 (ip), vehicle: distilled water + Tween-80) 193 % of control; (dose: 32.0 mg/kg/injection, schedule: Q01DX001 (ip), vehicle: water) 171 % of control; (dose: 64.0 mg/kg/injection, schedule: Q01DX001 (ip), vehicle: water) 190 % of control.
Take `Cc1ccc(NC(=O)NNC(=O)CNC(=O)Nc2n[nH]c(=S)s2)c(C)c1`: the T/C is 92 % of control under setting [1], 86 % of control under setting [2] and 91 % of control under setting [3].
For the molecule `CNP(=O)(OC)Oc1ccc(C(C)(C)C)cc1Cl` (centres undefined), the T/C reads like this: under setting [1], 112 % of control; under setting [2], 106 % of control; under setting [3], 115 % of control.
As for `Cc1cc2c(cc1[N+](=O)[O-])NC(CNC(C)C)CC2` (centres undefined), the T/C runs as follows: under setting [1], 101 % of control; under setting [2], 105 % of control; under setting [3], 108 % of control.
As to `O=C(O)c1cccc2nc3cc4c(c(C(=O)O)c3nc12)OCO4`, the T/C under setting [4] was 93 % of control, the T/C under setting [5] is 99 % of control and the T/C under setting [6] is 105 % of control.
For the molecule `S=C(S)NN1CCOCC1`, the T/C is 88 % of control under setting [7]; 110 % of control under setting [8]; 106 % of control (dose: 400.0 mg/kg/injection, schedule: Q01DX009 (ip), vehicle: saline).
As for `NC(N)=NN=c1/c(=N\N=C(N)N)c2cc3ccccc3cc2/c1=N/N=C(N)N`, the T/C reads like this: (dose: 6.25 mg/kg/injection, schedule: Q01DX001 (ip), vehicle: saline) 102 % of control; (dose: 12.5 mg/kg/injection, schedule: Q01DX001 (ip), vehicle: saline) 96 % of control; (dose: 25.0 mg/kg/injection, schedule: Q01DX001 (ip), vehicle: saline) 96 % of control and 97 % of control.
Turning to `CNC(=S)N/N=C\C(C)=N/Nc1ccc([N+](=O)[O-])cc1`, the T/C is, setting by setting: (dose: 50.0 mg/kg/injection, schedule: Q01DX009 (ip), vehicle: saline) 94 % of control; under setting [7], 93 % of control; under setting [8], 87 % of control.
`COc1ccc2c(c1)OC(C)(C)C(c1ccccc1)=C2c1ccc(O)cc1`: the T/C reads like this: (dose: 15.0 mg/kg/injection, schedule: Q01DX005 (ip), vehicle: saline with Tween-80) 97 % of control; (dose: 30.0 mg/kg/injection, schedule: Q01DX005 (ip), vehicle: saline with Tween-80) 92 % of control; under setting [4], 95 % of control.
On to `C=C(C)C12CC(C)C34OC5(CCCCCCCC(C)C6C(C)C(OC(=O)c7ccccc7)C(O)(C(O)C7(CO)OC7C3C1O5)C64)O2` (centres undefined), for which the T/C was 107 % of control (dose: 3.0 micrograms/kg/injection, schedule: Q01DX009 (ip), vehicle: saline + alcohol); 109 % of control (dose: 5.0 micrograms/kg/injection, schedule: Q01DX009 (ip), vehicle: saline + alcohol); 118 % of control (dose: 10.0 micrograms/kg/injection, schedule: Q01DX009 (ip), vehicle: saline + alcohol).
Regarding `C[C@@]12N[C@H]3S[C@]1(C)c1ccccc1N2C[C@@H]3C#N`, the T/C reads like this: (dose: 25.0 mg/kg/injection, schedule: Q01DX005 (ip), vehicle: saline with Tween-80) 99 % of control; (dose: 50.0 mg/kg/injection, schedule: Q01DX005 (ip), vehicle: saline with Tween-80) 86 % of control and 94 % of control; (dose: 100.0 mg/kg/injection, schedule: Q01DX005 (ip), vehicle: saline with Tween-80) 96 % of control.
As to `O=C1C(N=Nc2ccc(Cl)cc2)Sc2nc3ccccc3n21` (centres undefined), the T/C runs as follows: (dose: 60.0 mg/kg/injection, schedule: Q01DX005 (ip), vehicle: Klucel (hydroxypropylcellulose) (HPC)) 92 % of control; (dose: 120.0 mg/kg/injection, schedule: Q01DX005 (ip), vehicle: Klucel (hydroxypropylcellulose) (HPC)) 90 % of control.
Consider `CC(NC(=O)C(Cc1c[nH]c2ccccc12)NC(=O)OC(C)(C)C)C(=O)NN` (stereo not drawn) (Boc-Trp-Ala-NHNH2; configuration not given here), for which the T/C runs as follows: (dose: 12.5 mg/kg/injection, schedule: Q01DX009 (ip), vehicle: other) 98 % of control; (dose: 25.0 mg/kg/injection, schedule: Q01DX009 (ip), vehicle: other) 100 % of control; (dose: 50.0 mg/kg/injection, schedule: Q01DX009 (ip), vehicle: other) 105 % of control; (dose: 100.0 mg/kg/injection, schedule: Q01DX009 (ip), vehicle: other) 109 % of control; (dose: 200.0 mg/kg/injection, schedule: Q01DX009 (ip), vehicle: other) 119 % of control.
For `Cc1c2ccncc2c(C)c2c1[nH]c1ccc(OCCN(C)C)cc12`, the T/C was 108 % of control (dose: 6.25 mg/kg/injection, schedule: Q04DX002 (ip), vehicle: water); 114 % of control (dose: 12.5 mg/kg/injection, schedule: Q04DX002 (ip), vehicle: water); 119 % of control (dose: 25.0 mg/kg/injection, schedule: Q04DX002 (ip), vehicle: water); 87 % of control (dose: 50.0 mg/kg/injection, schedule: Q04DX002 (ip), vehicle: water).
For the molecule `CCC(=O)c1c(O)cc(O)cc1O`, the T/C (dose: 50.0 mg/kg/injection, schedule: Q04DX003 (ip), vehicle: saline with Tween-80) is 103 % of control; the T/C (dose: 100.0 mg/kg/injection, schedule: Q04DX003 (ip), vehicle: saline with Tween-80) was 103 % of control; the T/C (dose: 200.0 mg/kg/injection, schedule: Q04DX003 (ip), vehicle: saline with Tween-80) is 102 % of control; the T/C (dose: 400.0 mg/kg/injection, schedule: Q04DX003 (ip), vehicle: saline with Tween-80) is 103 % of control.
As to `CCCCC1(C(O)CC)Sc2ccccc2N1C` (centres undefined), the T/C by setting is: under setting [4], 100 % of control; under setting [5], 101 % of control; under setting [6], 110 % of control.
With `CCCCC1C(=S)N(c2ccccc2)N(c2ccccc2)C1=S`, the T/C is, setting by setting: (dose: 50.0 mg/kg/injection, schedule: Q01DX005 (ip), vehicle: Klucel (hydroxypropylcellulose) (HPC)) 101 % of control; (dose: 100.0 mg/kg/injection, schedule: Q01DX005 (ip), vehicle: Klucel (hydroxypropylcellulose) (HPC)) 94 % of control; (dose: 200.0 mg/kg/injection, schedule: Q01DX005 (ip), vehicle: Klucel (hydroxypropylcellulose) (HPC)) 97 % of control.
`Cc1cccc(NC(=O)C(=O)C(C#N)c2c(Cl)cccc2Cl)c1C` (centres undefined): the T/C is 102 % of control under setting [4], 96 % of control under setting [5] and 100 % of control under setting [6].
Consider `O=Nc1ccc(Cl)cc1`, for which the T/C is 103 % of control (dose: 12.5 mg/kg/injection, schedule: Q04DX003 (ip), vehicle: Klucel (hydroxypropylcellulose) (HPC)); 101 % of control (dose: 25.0 mg/kg/injection, schedule: Q04DX003 (ip), vehicle: Klucel (hydroxypropylcellulose) (HPC)); 93 % of control (dose: 50.0 mg/kg/injection, schedule: Q04DX003 (ip), vehicle: Klucel (hydroxypropylcellulose) (HPC)).
On to `CC(=O)Nc1ccc(/C=N/NC(=O)CNC(=O)Nc2cccc(Cl)c2Cl)cc1`, for which the T/C (dose: 25.0 mg/kg/injection, schedule: Q01DX009 (ip), vehicle: saline with Tween-80) is 99 % of control; the T/C under setting [1] was 97 % of control; the T/C under setting [2] was 89 % of control; the T/C under setting [3] is 93 % of control.
Take `O=[N+]([O-])c1cccnc1S(=O)(=O)c1ccccn1`: the T/C was 100 % of control (dose: 6.25 mg/kg/injection, schedule: Q01DX009 (ip), vehicle: Klucel (hydroxypropylcellulose) (HPC)) and 100 % of control (dose: 12.5 mg/kg/injection, schedule: Q01DX009 (ip), vehicle: Klucel (hydroxypropylcellulose) (HPC)).
